For series [1], the target named is full-length FLAG-tagged B-Raf(V600E) (Homo sapiens (Human), UniProt P15056, V600E). In words: BRAF V600E enzyme assay (TR-FRET competitive displacement). In kind it is binding. Summed up:
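Displacement of 50 nM Tracer 1710 from 5 nM full-length N-terminally FLAG-tagged B-Raf(V600E), detected by TR-FRET with 0.5 nM Eu anti-FLAG antibody, in 25 mM HEPES pH 7.4, 10 mM MgCl2, 2% DMSO; 60 min at ~22 °C. Compounds 11-point, 3-fold from 10 μM; IC50 from 4-parameter fit at 50 POC.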

Series [2] is described as follows: MDR1 LLC-PK1 and BCRP MDCKII permeability assay: permeability coefficient (Papp). The format is in vitro ADME. From the text: (§1) Final organic concentration in the assay was 1%.
The next series deals with A375 cells. In words: Cellular phospho-ERK inhibition assay in A375 cells. The format is cell-based. Particulars: Homo sapiens, A-375, A375 cells (head prints A357), 2 hours treatment, read-out: A357 cell IC50. Summed up: (§2)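 A375 (DMEM) or H1755 (RPMI) cells in 10% FBS treated 2 h at 37 °C with 9-point series, 66 pM–10 μM, 0.25% DMSO. Phospho-ERK1/2 (Thr202/Tyr204) measured by In Cell Western, normalised to GAPDH and to DMSO and 10 μM binimetinib controls; IC50 by 4-parameter fit.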

In a further series the target is P-gp (MDR1) (Homo sapiens (Human), UniProt P08183). In words: MDR1 LLC-PK1 permeability assay: efflux ratio. In kind it is in vitro ADME. Particulars: pig.
Description: as §1

A further series deals with H1755 cells. In words: Cellular phospho-ERK inhibition assay in H1755 cells. The format is cell-based. Particulars: Homo sapiens, NCI-H1755, 2 hours treatment, read-out: H1755 Cell IC50. Summed up:
as §2

Another series addresses BCRP (Homo sapiens (Human), UniProt Q9UNQ0). Nature of the series: BCRP MDCKII permeability assay: efflux ratio. In kind it is in vitro ADME. Particulars: dog.
Where [3] appears, read: averaged IC50, TR-FRET tracer displacement, 60 min.

Where a name gives a salt, the structure may show the parent alone. Read-outs that look alike come from different tables or passages of the source.

Sequence of full-length FLAG-tagged B-Raf(V600E) (P15056 whole entry V600E): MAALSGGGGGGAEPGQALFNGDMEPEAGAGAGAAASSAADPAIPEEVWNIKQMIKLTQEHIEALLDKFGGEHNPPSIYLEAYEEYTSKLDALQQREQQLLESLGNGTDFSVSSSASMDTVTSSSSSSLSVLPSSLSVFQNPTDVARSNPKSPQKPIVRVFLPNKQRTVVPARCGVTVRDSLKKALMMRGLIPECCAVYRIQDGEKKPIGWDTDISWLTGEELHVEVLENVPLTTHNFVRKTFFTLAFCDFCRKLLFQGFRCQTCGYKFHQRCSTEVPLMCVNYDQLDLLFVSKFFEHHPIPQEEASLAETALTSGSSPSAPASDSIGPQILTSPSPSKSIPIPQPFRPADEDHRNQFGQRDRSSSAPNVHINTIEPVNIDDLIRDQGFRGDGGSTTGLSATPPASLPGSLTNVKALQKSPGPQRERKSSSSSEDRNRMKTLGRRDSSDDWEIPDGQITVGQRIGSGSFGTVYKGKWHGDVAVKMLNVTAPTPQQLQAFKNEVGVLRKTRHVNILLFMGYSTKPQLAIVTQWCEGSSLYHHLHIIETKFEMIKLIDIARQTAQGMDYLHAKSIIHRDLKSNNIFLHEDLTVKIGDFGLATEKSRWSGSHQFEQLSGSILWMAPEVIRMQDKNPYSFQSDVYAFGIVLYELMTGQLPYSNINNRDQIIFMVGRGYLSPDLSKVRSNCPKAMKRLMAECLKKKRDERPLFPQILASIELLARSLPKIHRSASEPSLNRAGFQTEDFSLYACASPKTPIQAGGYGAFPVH
Sequence of BCRP (Q9UNQ0 whole entry): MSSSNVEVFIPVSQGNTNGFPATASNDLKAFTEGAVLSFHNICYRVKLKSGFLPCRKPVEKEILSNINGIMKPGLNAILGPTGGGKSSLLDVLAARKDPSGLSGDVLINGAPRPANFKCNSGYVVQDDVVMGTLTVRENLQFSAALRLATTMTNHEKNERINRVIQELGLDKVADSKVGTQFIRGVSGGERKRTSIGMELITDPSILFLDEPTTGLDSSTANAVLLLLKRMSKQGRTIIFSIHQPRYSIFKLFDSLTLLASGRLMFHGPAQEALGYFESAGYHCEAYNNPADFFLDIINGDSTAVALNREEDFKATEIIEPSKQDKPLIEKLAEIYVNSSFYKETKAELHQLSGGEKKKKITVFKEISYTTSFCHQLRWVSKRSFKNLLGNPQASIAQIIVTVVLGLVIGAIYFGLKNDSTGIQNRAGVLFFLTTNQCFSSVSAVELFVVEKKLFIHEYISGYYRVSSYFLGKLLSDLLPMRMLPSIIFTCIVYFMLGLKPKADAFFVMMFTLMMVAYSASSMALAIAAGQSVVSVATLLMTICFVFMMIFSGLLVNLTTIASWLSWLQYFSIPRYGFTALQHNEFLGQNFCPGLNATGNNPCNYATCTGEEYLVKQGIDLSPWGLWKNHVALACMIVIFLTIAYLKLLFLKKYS
Sequence of P-gp (MDR1) (P08183 whole entry, species assumed): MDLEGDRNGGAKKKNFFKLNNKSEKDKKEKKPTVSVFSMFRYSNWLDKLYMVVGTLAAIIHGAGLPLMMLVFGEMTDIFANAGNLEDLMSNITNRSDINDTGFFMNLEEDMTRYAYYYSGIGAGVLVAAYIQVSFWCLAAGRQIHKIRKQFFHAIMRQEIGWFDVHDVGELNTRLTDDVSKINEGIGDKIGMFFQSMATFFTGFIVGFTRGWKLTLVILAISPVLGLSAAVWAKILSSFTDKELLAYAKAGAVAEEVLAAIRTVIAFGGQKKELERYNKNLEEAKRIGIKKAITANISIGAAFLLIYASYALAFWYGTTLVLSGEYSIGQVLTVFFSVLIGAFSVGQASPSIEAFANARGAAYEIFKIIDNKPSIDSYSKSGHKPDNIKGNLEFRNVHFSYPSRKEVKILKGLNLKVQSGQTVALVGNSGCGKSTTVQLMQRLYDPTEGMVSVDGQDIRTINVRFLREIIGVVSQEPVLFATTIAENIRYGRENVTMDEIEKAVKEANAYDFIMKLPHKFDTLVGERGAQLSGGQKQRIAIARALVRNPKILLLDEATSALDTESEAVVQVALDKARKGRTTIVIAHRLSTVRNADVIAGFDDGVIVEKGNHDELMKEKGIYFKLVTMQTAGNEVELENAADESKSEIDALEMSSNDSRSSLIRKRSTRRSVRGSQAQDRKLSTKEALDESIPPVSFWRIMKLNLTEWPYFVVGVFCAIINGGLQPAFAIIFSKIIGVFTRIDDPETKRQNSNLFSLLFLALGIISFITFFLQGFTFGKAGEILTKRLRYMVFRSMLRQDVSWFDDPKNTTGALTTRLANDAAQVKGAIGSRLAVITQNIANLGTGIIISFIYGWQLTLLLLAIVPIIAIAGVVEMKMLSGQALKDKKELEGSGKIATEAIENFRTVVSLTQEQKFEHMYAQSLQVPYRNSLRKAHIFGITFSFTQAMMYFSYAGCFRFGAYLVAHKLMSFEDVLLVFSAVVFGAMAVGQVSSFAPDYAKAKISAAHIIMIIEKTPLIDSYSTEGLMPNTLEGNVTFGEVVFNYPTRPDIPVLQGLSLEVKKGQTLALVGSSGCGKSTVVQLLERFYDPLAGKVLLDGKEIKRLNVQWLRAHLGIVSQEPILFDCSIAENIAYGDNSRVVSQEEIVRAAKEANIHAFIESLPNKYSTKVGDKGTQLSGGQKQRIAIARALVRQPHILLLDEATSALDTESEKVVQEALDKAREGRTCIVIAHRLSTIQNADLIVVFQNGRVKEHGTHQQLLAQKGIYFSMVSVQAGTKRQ

Usually IC50 stands for the concentration that gives 50% inhibition. What is called Papp is a coefficient for how fast a substance crosses the barrier. Read a low Papp as poor permeation. By efflux ratio is commonly meant a quotient of directional permeabilities that is used to spot active efflux. Take `Cn1cnc2ccc(Nc3cc(Cl)cc(NS(=O)(=O)N4CC[C@@H](F)C4)c3F)c(F)c2c1=O` [Example 58, (R)-N-(5-chloro-2-fluoro-3-((5-fluoro-3-methyl-4-oxo-3,4-dihydroquinazolin-6-yl)amino)phenyl)-3-fluoropyrrolidine-1-sulfonamide trifluoroacetate]: the IC50 worked out at 3 nM in series [1] (setting [3]), 6 nM in the series with A375 cells and 32 nM in the series on H1755 cells. For the same molecule, the apparent permeability (Papp) at 2 h, 1 µM in series [2] was determined as 27 ×10⁻⁶ cm/s. Further, the efflux ratio at 2 h, 1 µM is 5.3 at P-gp (MDR1) and 7.3 at BCRP.

As for `Cn1cnc2ccc(Oc3c(F)ccc(NS(=O)(=O)N4C[C@@H](F)[C@@H](F)C4)c3Cl)c(Cl)c2c1=O` [Example 59, cis-N-(2-chloro-3-((5-chloro-3-methyl-4-oxo-3,4-dihydroquinazolin-6-yl)oxy)-4-fluorophenyl)-3,4-difluoropyrrolidine-1-sulfonamide], the figures for the IC50 (in series [1]; in the series with A375 cells; with H1755 cells) were 1 nM, 10 nM and 60 nM, respectively. Moreover, the Papp at 2 h, 1 µM in series [2] was 31 ×10⁻⁶ cm/s. Further, the efflux ratio at 2 h, 1 µM on P-gp (MDR1) turned out to be 4.9; at BCRP, 12.9.

Consider `Cn1cnc2ccc(Oc3c(F)ccc(NS(=O)(=O)N4CC[C@@H](OC(F)F)C4)c3Cl)c(Cl)c2c1=O` [Example 60, (R)-N-(2-chloro-3-((5-chloro-3-methyl-4-oxo-3,4-dihydroquinazolin-6-yl)oxy)-4-fluorophenyl)-3-(difluoromethoxy)pyrrolidine-1-sulfonamide], for which the IC50 in series [1] was determined as 2 nM; in the series on A375 cells it was 7 nM; with H1755 cells it was 61 nM. The molecule further displayed a Papp at 2 h, 1 µM in series [2] of 18 ×10⁻⁶ cm/s. For the same molecule, the efflux ratio at 2 h, 1 µM on P-gp (MDR1) stood at 3.1; on BCRP, 1.6.

For the molecule `Cn1cnc2ccc(Oc3c(F)ccc(NS(=O)(=O)N4CCC(F)(F)C4)c3Cl)c(Cl)c2c1=O` [Example 61, N-(2-chloro-3-((5-chloro-3-methyl-4-oxo-3,4-dihydroquinazolin-6-yl)oxy)-4-fluorophenyl)-3,3-difluoropyrrolidine-1-sulfonamide], the IC50 in series [1] is 2 nM; with A375 cells it was 25 nM; with H1755 cells, 194 nM. This molecule also had a Papp at 2 h, 1 µM in series [2] of 29 ×10⁻⁶ cm/s. For the same molecule, the efflux ratio at 2 h, 1 µM at P-gp (MDR1) amounted to 2.2; at BCRP, 3.3.

In the case of `CC[C@@H]1CCN(S(=O)(=O)Nc2ccc(F)c(Nc3ccc4ncn(C)c(=O)c4c3F)c2Cl)C1` [Example 62, (R)-N-(2-chloro-4-fluoro-3-((5-fluoro-3-methyl-4-oxo-3,4-dihydroquinazolin-6-yl)amino)phenyl)-3-ethylpyrrolidine-1-sulfonamide trifluoroacetate], the IC50 in series [1] (setting [3]) worked out at 13 nM; in the series on A375 cells, 31 nM; in the series with H1755 cells, 185 nM. The same molecule gave a Papp at 2 h, 1 µM in series [2] of 29 ×10⁻⁶ cm/s. The values for the efflux ratio at 2 h, 1 µM at P-gp (MDR1) and on BCRP were 1.6 and 1, respectively.

Regarding `Cn1cnc2ccc(Oc3c(F)ccc(NS(=O)(=O)N4CCC(F)(F)C4)c3Cl)c(F)c2c1=O` [Example 63, N-(2-chloro-4-fluoro-3-((5-fluoro-3-methyl-4-oxo-3,4-dihydroquinazolin-6-yl)oxy)phenyl)-3,3-difluoropyrrolidine-1-sulfonamide], the IC50 turned out to be 1 nM in series [1], 7 nM in the series with A375 cells and 84 nM in the series on H1755 cells. This molecule yielded a Papp at 2 h, 1 µM in series [2] of 39 ×10⁻⁶ cm/s. Also, the efflux ratio at 2 h, 1 µM at P-gp (MDR1) is 1.7; at BCRP it was 3.6.

Regarding `Cn1cnc2ccc(Oc3c(F)ccc(NS(=O)(=O)N4CC5CC5C4)c3Cl)c(F)c2c1=O` (stereo not drawn) [Example 65, N-(2-chloro-4-fluoro-3-((5-fluoro-3-methyl-4-oxo-3,4-dihydroquinazolin-6-yl)oxy)phenyl)-3-azabicyclo[3.1.0]hexane-3-sulfonamide], the IC50 in series [1] turned out to be 2 nM; in the series on A375 cells, 13 nM; in the series on H1755 cells it was 127 nM. The molecule further had a Papp at 2 h, 1 µM in series [2] of 28 ×10⁻⁶ cm/s. The efflux ratio at 2 h, 1 µM came to 1.3 on P-gp (MDR1) and 1 at BCRP.

(Values after patent publication US12303509B2, “Compounds for the treatment of BRAF-associated diseases and disorders” (Pfizer Inc., priority 2020, dated 2025).)
